Reference: ChEMBL document CHEMBL1157515, “Discovery of a novel class of 2-ureido thiophene carboxamide checkpoint kinase inhibitors” (Bioorg Med Chem Lett, 2008)

Tests used:
[1] = biological target: T1, Serine/threonine-protein kinase Chk1 (Homo sapiens, UniProt O14757); assay: Inhibition of Chk1
T1 sequence (O14757 whole entry): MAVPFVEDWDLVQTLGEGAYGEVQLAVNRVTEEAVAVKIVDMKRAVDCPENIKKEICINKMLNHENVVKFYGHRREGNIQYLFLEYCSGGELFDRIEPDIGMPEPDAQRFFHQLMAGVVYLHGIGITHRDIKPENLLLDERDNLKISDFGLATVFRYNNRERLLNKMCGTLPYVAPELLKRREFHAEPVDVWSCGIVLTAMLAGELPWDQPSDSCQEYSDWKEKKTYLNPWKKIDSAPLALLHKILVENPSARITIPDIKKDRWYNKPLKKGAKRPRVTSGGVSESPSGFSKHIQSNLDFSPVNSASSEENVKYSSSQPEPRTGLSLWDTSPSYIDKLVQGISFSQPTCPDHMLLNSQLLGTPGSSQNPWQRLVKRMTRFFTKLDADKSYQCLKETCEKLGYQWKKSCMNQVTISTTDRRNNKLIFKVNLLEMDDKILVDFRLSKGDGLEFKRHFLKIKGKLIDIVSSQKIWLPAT

[2] = system: HT-29; assay: Abrogation of camptothecin induced cell cycle arrest at G2/M phase in human HT29 cells; type: functional, cell-based

SMILES: COc1ccc(Nc2cc(-c3cccnc3)[nH]n2)cc1OC
- IC50 [1]: 600 nM

SMILES: NCCNC(=O)c1cc(-c2ccccc2)sc1NC(N)=O
- EC50 ([2]; Homo sapiens, HT-29): 960 nM
- IC50 [1]: 30 nM

SMILES: NC(=O)Nc1sc(-c2cccc(F)c2)cc1C(=O)N[C@H]1CCCNC1
- EC50 ([2]; ht-29): 20 nM
- IC50 [1]: 11 nM

SMILES: CCN(CC)CCOc1ccc(-c2cc(C(=O)Nc3cccnc3)c(NC(N)=O)s2)cc1
- EC50 ([2]; Homo sapiens, HT-29): > 12500 nM
- IC50 [1]: 100 nM

SMILES: NC(=O)Nc1sc(-c2ccc(OCCN3CCCCC3)cc2)cc1C(N)=O
- IC50 [1]: 230 nM

SMILES: NC(=O)Nc1sc(-c2ccccc2)cc1C(=O)NC1CCNCC1
- IC50 [1]: 110 nM

SMILES: CCN(CC)CCOc1ccc(-c2cc(C(=O)NC3CCNCC3)c(NC(N)=O)s2)cc1
- EC50 ([2]; Homo sapiens, HT-29): > 12500 nM
- IC50 [1]: 35 nM

SMILES: CC(=O)Nc1cccc(-c2cc(C(=O)N[C@H]3CCCNC3)c(NC(N)=O)s2)c1
- EC50 ([2]; Homo sapiens, HT-29): 1800 nM
- IC50 [1]: 8 nM

SMILES: NC(=O)Nc1sc(-c2ccccc2)cc1C(=O)NC1CNCCNC1=O (configuration not stated)
- IC50 [1]: 110 nM

SMILES: NC(=O)Nc1sc(-c2ccsc2)cc1C(=O)N[C@H]1CCCNC1
- EC50 ([2]; Homo sapiens, HT-29): < 9 nM
- IC50 [1]: 6 nM

SMILES: CN1CCN(C(=O)c2cc(-c3ccccc3)sc2NC(N)=O)CC1
- IC50 [1]: 7100 nM

SMILES: NC(=O)Nc1sc(-c2cccnc2)cc1C(=O)N[C@H]1CCCNC1
- EC50 ([2]; ht-29): 300 nM
- IC50 [1]: 6 nM

SMILES: CN(CCN)C(=O)c1cc(-c2ccccc2)sc1NC(N)=O
- IC50 [1]: 5500 nM

SMILES: CN(C)c1ccc(-c2cc(C(=O)N[C@H]3CCCNC3)c(NC(N)=O)s2)cc1
- EC50 ([2]; Homo sapiens, HT-29): 90 nM
- IC50 [1]: 41 nM

SMILES: NC(=O)Nc1sc(-c2cccc(Cl)c2)cc1C(=O)N[C@H]1CCCNC1
- EC50 ([2]; Homo sapiens, HT-29): 40 nM
- IC50 [1]: 14 nM

SMILES: CCN(CC)CCOc1ccc(-c2cc(C(=O)Nc3cccc(CO)c3)c(NC(N)=O)s2)cc1
- EC50 ([2]; Homo sapiens, HT-29): > 12500 nM
- IC50 [1]: 50 nM

SMILES: CC1(C)CCCC(C)(C)N1Cc1ccc(-c2cc(C(N)=O)c(NC(N)=O)s2)cc1
- IC50 [1]: 17 nM

SMILES: NC(=O)Nc1sc(-c2ccc(OCCOCC3CC3)cc2)cc1C(N)=O
- IC50 [1]: 23000 nM

SMILES: CN1CCN(Cc2ccc(-c3cc(C(N)=O)c(NC(N)=O)s3)cc2)CC1
- IC50 [1]: 41 nM

SMILES: NC(=O)Nc1sc(-c2ccccc2)cc1C(=O)N[C@@H]1CCCCNC1
- EC50 ([2]; Homo sapiens, HT-29): 110 nM
- IC50 [1]: 3 nM

SMILES: NC(=O)Nc1sc(-c2ccc(O)cc2)cc1C(=O)N[C@H]1CCCNC1
- EC50 ([2]; Homo sapiens, HT-29): 1200 nM
- IC50 [1]: 7 nM

SMILES: NC(=O)Nc1sc(-c2ccccc2)cc1C(=O)N[C@@H]1CN2CCC1CC2
- IC50 [1]: 130 nM

SMILES: NC(=O)Nc1sc(-c2ccc(C(=O)N3CCCCC3)cc2)cc1C(=O)N[C@H]1CCCNC1
- EC50 ([2]; Homo sapiens, HT-29): 130 nM
- IC50 [1]: 11 nM

SMILES: NC(=O)Nc1sc(-c2ccc(C(F)(F)F)cc2)cc1C(=O)N[C@H]1CCCNC1
- EC50 ([2]; Homo sapiens, HT-29): 170 nM
- IC50 [1]: 19 nM

SMILES: CNCCNC(=O)c1cc(-c2ccccc2)sc1NC(N)=O
- EC50 ([2]; Homo sapiens, HT-29): 580 nM
- IC50 [1]: 100 nM

SMILES: NC(=O)Nc1sc(-c2ccccc2)cc1C(=O)NC1CCOCC1
- IC50 [1]: 2100 nM

SMILES: CC(=O)c1ccc(-c2cc(C(=O)N[C@H]3CCCNC3)c(NC(N)=O)s2)cc1
- EC50 ([2]; Homo sapiens, HT-29): 60 nM
- IC50 [1]: 7 nM

SMILES: NC(=O)Nc1sc(-c2ccc(CN3CCCCC3)cc2)cc1C(N)=O
- EC50 ([2]; Homo sapiens, HT-29): 270 nM
- IC50 [1]: 37 nM

SMILES: CN(C)CCCOc1ccc(-c2cc(C(N)=O)c(NC(N)=O)s2)cc1
- IC50 [1]: 230 nM

SMILES: NC(=O)Nc1sc(-c2ccc(Cl)cc2)cc1C(=O)N[C@H]1CCCNC1
- EC50 ([2]; Homo sapiens, HT-29): 40 nM
- IC50 [1]: 10 nM

SMILES: NC(=O)Nc1sc(-c2ccccc2)cc1C(=O)NCc1ccccc1
- IC50 [1]: > 10000 nM

SMILES: N#Cc1ccc(-c2cc(C(=O)N[C@H]3CCCNC3)c(NC(N)=O)s2)cc1
- EC50 ([2]; Homo sapiens, HT-29): 80 nM
- IC50 [1]: 6 nM

SMILES: CNC(=O)c1ccc(-c2cc(C(=O)N[C@H]3CCCNC3)c(NC(N)=O)s2)cc1
- EC50 ([2]; Homo sapiens, HT-29): 4300 nM
- IC50 [1]: 9 nM

SMILES: COCCOCCOc1ccc(-c2cc(C(N)=O)c(NC(N)=O)s2)cc1
- IC50 [1]: 4100 nM

SMILES: NC(=O)Nc1sc(-c2ccccc2)cc1C(=O)N[C@@H]1CCCNC1
- EC50 ([2]; ht-29): 1900 nM

SMILES: NC(=O)Nc1sc(-c2ccccc2)cc1C(=O)NC[C@H]1CCCNC1
- EC50 ([2]; Homo sapiens, HT-29): 2100 nM
- IC50 [1]: 100 nM

SMILES: NC(=O)Nc1sc(-c2ccncc2)cc1C(=O)N[C@H]1CCCNC1
- EC50 ([2]; ht-29): 340 nM
- IC50 [1]: 4 nM

SMILES: NC(=O)Nc1sc(-c2ccccc2)cc1C(=O)NC[C@@H]1CCCNC1
- EC50 ([2]; Homo sapiens, HT-29): 6200 nM
- IC50 [1]: 100 nM

SMILES: NC(=O)Nc1sc(-c2cccs2)cc1C(=O)N[C@H]1CCCNC1
- EC50 ([2]; Homo sapiens, HT-29): < 8 nM
- IC50 [1]: 3 nM

SMILES: NC(=O)Nc1sc(-c2ccc(F)cc2)cc1C(=O)N[C@H]1CCCNC1
- EC50 ([2]; Homo sapiens, HT-29): 30 nM
- IC50 [1]: 9 nM

SMILES: NC(=O)Nc1sc(-c2ccc(N)cc2)cc1C(=O)N[C@H]1CCCNC1
- EC50 ([2]; Homo sapiens, HT-29): 920 nM
- IC50 [1]: 13 nM

SMILES: CCN(CC)CCOc1ccc(-c2cc(C(=O)NC3CCCNC3)c(NC(N)=O)s2)cc1 (configuration not stated)
- EC50 ([2]; Homo sapiens, HT-29): 17 nM

SMILES: NC(=O)Nc1sc(-c2ccccc2)cc1C(=O)N1CCOCC1
- IC50 [1]: > 30000 nM

SMILES: COCCOc1ccc(-c2cc(C(N)=O)c(NC(N)=O)s2)cc1
- IC50 [1]: 6700 nM

SMILES: NC(=O)Nc1sc(-c2ccccc2F)cc1C(=O)N[C@H]1CCCNC1
- EC50 ([2]; Homo sapiens, HT-29): 80 nM
- IC50 [1]: 9 nM

SMILES: CN(C)C(=O)c1ccc(-c2cc(C(=O)N[C@H]3CCCNC3)c(NC(N)=O)s2)cc1
- EC50 ([2]; Homo sapiens, HT-29): 320 nM
- IC50 [1]: 9 nM

SMILES: CCN(CC)CCOc1cccc(-c2cc(C(=O)N[C@H]3CCCNC3)c(NC(N)=O)s2)c1
- EC50 ([2]; Homo sapiens, HT-29): 1100 nM
- IC50 [1]: < 10 nM

SMILES: CNCCOc1ccc(-c2cc(C(N)=O)c(NC(N)=O)s2)cc1
- IC50 [1]: 360 nM

SMILES: Cc1ccc(-c2cc(C(=O)N[C@H]3CCCNC3)c(NC(N)=O)s2)cc1
- EC50 ([2]; Homo sapiens, HT-29): 70 nM
- IC50 [1]: 10 nM

SMILES: CCN(CC)CCOc1ccc(-c2cc(C(=O)NC3CCNC3)c(NC(N)=O)s2)cc1 (configuration not stated)
- EC50 ([2]; Homo sapiens, HT-29): > 12500 nM
- IC50 [1]: 100 nM

SMILES: NC(=O)Nc1sc(-c2ccc(OC(F)(F)F)cc2)cc1C(N)=O
- IC50 [1]: 2600 nM

SMILES: CN(C)CCOc1ccc(-c2cc(C(N)=O)c(NC(N)=O)s2)cc1
- EC50 ([2]; Homo sapiens, HT-29): > 12500 nM

SMILES: NC(=O)Nc1sc(-c2ccccc2)cc1C(=O)NCCO
- IC50 [1]: 5100 nM

SMILES: CS(=O)(=O)c1ccc(-c2cc(C(=O)N[C@H]3CCCNC3)c(NC(N)=O)s2)cc1
- EC50 ([2]; Homo sapiens, HT-29): 200 nM
- IC50 [1]: 6 nM

SMILES: CCN(CC)CCOc1cccc(-c2cc(C(=O)NC3CCCNC3)c(NC(N)=O)s2)c1 (racemic)
- EC50 ([2]; Homo sapiens, HT-29): 2600 nM
- IC50 [1]: 10 nM

SMILES: NC(=O)Nc1sc(-c2ccc(CNC3CCCC3)cc2)cc1C(N)=O
- IC50 [1]: 39 nM

SMILES: NC(=O)Nc1sc(-c2ccc(C(N)=O)cc2)cc1C(=O)N[C@H]1CCCNC1
- EC50 ([2]; Homo sapiens, HT-29): 3200 nM
- IC50 [1]: 5 nM

SMILES: NC(=O)Nc1sc(-c2ccc(C(=O)N3CCOCC3)cc2)cc1C(=O)N[C@H]1CCCNC1
- EC50 ([2]; Homo sapiens, HT-29): 610 nM
- IC50 [1]: 10 nM

SMILES: NC(=O)Nc1sc(-c2ccccc2)cc1C(=O)NC1CCCCC1
- IC50 [1]: 3900 nM

SMILES: NC(=O)Nc1sc(-c2cccc(C(N)=O)c2)cc1C(=O)N[C@H]1CCCNC1
- EC50 ([2]; Homo sapiens, HT-29): 8100 nM
- IC50 [1]: 5 nM

SMILES: COc1ccc(-c2cc(C(N)=O)c(NC(N)=O)s2)cc1
- IC50 [1]: 5000 nM

SMILES: COCCNCc1ccc(-c2cc(C(N)=O)c(NC(N)=O)s2)cc1
- IC50 [1]: 72 nM

SMILES: NC(=O)Nc1sc(-c2ccccc2)cc1C(=O)N[C@H]1CN2CCC1CC2
- IC50 [1]: 980 nM

SMILES: NC(=O)Nc1sc(-c2ccccc2)cc1C(=O)Nc1ccccc1
- IC50 [1]: 1000 nM

SMILES: CS(=O)(=O)Nc1ccc(-c2cc(C(=O)N[C@H]3CCCNC3)c(NC(N)=O)s2)cc1
- EC50 ([2]; Homo sapiens, HT-29): 2200 nM
- IC50 [1]: 41 nM

SMILES: CNCc1ccc(-c2cc(C(N)=O)c(NC(N)=O)s2)cc1
- IC50 [1]: > 300 nM

SMILES: NC(=O)Nc1sc(-c2ccccc2)cc1C(=O)NCC1CNCCO1 (configuration not stated)
- IC50 [1]: 300 nM

SMILES: CN1CCC[C@@H](NC(=O)c2cc(-c3ccccc3)sc2NC(N)=O)C1
- EC50 ([2]; Homo sapiens, HT-29): 2300 nM
- IC50 [1]: 160 nM

SMILES: COc1ccc(CNCc2ccc(-c3cc(C(N)=O)c(NC(N)=O)s3)cc2)cc1
- IC50 [1]: 29 nM

SMILES: NC(=O)Nc1sc(-c2ccccc2)cc1C(=O)NC1CCCCNC1=O (configuration not stated)
- EC50 ([2]; Homo sapiens, HT-29): > 13000 nM
- IC50 [1]: 23000 nM

SMILES: CN(C)CCNC(=O)c1cc(-c2ccccc2)sc1NC(N)=O
- EC50 ([2]; Homo sapiens, HT-29): 4100 nM
- IC50 [1]: 110 nM

SMILES: CN(CCO)Cc1ccc(-c2cc(C(N)=O)c(NC(N)=O)s2)cc1
- IC50 [1]: 31 nM
